Reference: patent US7473697B2, “2-Oxo-piperidinyl- and 2-oxo-azepanyl alkanoic acid derivatives for the treatment of epilepsy and other neurological disorders” (UCB S.A., priority 2001, dated 2009)
Like-named read-outs stand apart in the source and are kept apart here.

Columns and labels:
[1] = tested on: sound-susceptible mice (audiogenic seizures, clonic convulsions); assay: Audiogenic seizure test in sound-susceptible mice; format: in vivo; conditions: for ED50: Mus musculus
Excerpt: The objective of this test is to evaluate the anticonvulsant potency of a compound in sound-susceptible mice, a genetic animal model with reflex seizures. In this model of primary generalised epilepsy, seizures are evoked without electrical or chemical stimulation and the seizure types are, at least in part, similar in their clinical phenomenology to seizures occurring in man (Löscher W. & Schmidt D., Epilepsy Res. (1998), 2, 145-181: Buchhalter J. R , Epilepsia (1993), 34, S31-S41).
Male or female genetically sound-sensitive mice (14-28 g; N=10), derived from a DBA strain originally selected by Dr. Lehmann of the Laboratory of Acoustic Physiology (Paris) and bred in the UCB Pharma Sector husbandry unit since 1978, were used. The experimental design consisted of several groups, one group receiving the vehicle control and the other groups different doses of the test-compound. The compounds were administered intraperitoneally 60 minutes before the induction of audiogenic seizures.
For testing, the animals were placed in small cages, one mouse per cage, in a sound-attenuated chamber. After a period of orientation of 30 seconds, the acoustic stimulus (90 dB, 10-20 kHz) was delivered for 30 seconds via loudspeakers positioned above each cage. During this interval, the mice were observed and the presence of the 3 phases of the seizure activity namely wild running, clonic and tonic convulsions, was recorded. The proportion of mice protected against wild running, clonic and tonic convulsions, respectively, was calculated.
For active compounds, an ED50 value, i.e. the dose (expressed in moles per kg of test animal) producing 50% protection relative to the control group, together with 95% confidence limits, was calculated using a Probit Analysis (SAS/STAT® Software, version 6.09, PROBIT procedure) of the proportions of protected mice for each of the 3 phases of the seizure activity.
In tables I-A and I-B the ED50 value (=AUD CC) for the inhibition of Clonic Convulsions in the Audiogenic seizure test are given. This test is a good animal model for the screening of anticonvulsant and/or antiepileptic compounds.

[2] = target: T1, Levetiracetam Binding Site (LBS) (Rattus norvegicus, UniProt Q02563); assay: Competitive binding to levetiracetam binding site (LBS), radioligand [3H]-2-[4-(3-azidophenyl)-2-oxo-1-pyrrolidinyl]butanamide, cerebral cortex membranes
T1 construct: from tissue; host or cells: rat cerebral cortex crude membranes (male Sprague-Dawley)
T1 sequence (Q02563 whole entry): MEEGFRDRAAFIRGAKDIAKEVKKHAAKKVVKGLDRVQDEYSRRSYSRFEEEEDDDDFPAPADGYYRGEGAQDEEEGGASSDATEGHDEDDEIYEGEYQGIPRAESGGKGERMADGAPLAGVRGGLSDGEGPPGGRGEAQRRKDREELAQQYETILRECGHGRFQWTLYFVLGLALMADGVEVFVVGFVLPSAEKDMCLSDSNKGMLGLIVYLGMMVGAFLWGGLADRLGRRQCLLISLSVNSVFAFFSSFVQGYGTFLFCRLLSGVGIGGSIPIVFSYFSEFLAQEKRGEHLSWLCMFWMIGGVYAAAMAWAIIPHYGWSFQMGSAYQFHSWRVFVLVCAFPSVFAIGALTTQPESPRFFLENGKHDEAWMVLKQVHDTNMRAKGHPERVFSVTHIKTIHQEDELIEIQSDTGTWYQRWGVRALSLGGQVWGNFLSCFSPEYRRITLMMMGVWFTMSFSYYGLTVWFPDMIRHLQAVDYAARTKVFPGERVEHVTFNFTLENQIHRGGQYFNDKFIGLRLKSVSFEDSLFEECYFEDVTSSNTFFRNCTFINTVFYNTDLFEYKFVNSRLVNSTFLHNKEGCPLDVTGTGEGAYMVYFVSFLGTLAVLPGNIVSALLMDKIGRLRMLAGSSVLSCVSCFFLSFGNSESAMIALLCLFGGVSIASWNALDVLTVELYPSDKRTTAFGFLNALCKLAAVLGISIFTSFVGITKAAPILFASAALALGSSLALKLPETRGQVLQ
Experimental: The inhibition constant (Ki) of a compound is determined in competitive binding experiments by measuring the binding of a single concentration of a radioactive ligand at equilibrium with various concentrations of the unlabeled test substance. The concentration of the test substance inhibiting 50% of the specific binding of the radioligand is called the IC50. The equilibrium dissociation constant Ki is proportional to the IC50 and is calculated using the equation of Cheng and Prusoff (Cheng Y. et al., Biochem. Pharmacol. (1972), 22, 3099-3108).
The concentration range usually encompasses 6 log units with variable steps (0.3 to 1 log). Assays are performed in mono- or duplicate, each Ki determination is performed on two different samples of test substance. Cerebral cortex from 200-250 g male Sprague-Dawley rats were homogenised using a Potter S homogeniser (10 strokes at 1,000 rpm; Braun, Germany) in 20 mmol/l Tris-HCl (pH 7.4), 250 mmol/l sucrose (buffer A); all operations were performed at 4° C. The homogenate was centrifuged at 30,000 g for 15 min. The crude membrane pellet obtained was resuspended in 50 mmol/1 Tris-HCl (pH 7.4), (buffer B) and incubated 15 min at 37° C., centrifuged at 30,000 g for 15 min and washed twice with the same buffer. The final pellet was resuspended in buffer A at a protein concentration ranging from 15 to 25 mg/ml and stored in liquid nitrogen.
Membranes (150-200 μg of protein/assay) are incubated at 4° C. for 120 min in 0.5 ml of a 50 mmol/l Tris-HCl buffer (pH 7.4) containing 2 mmol/l MgCl2, 1 to 2.10^−9 mol/l of [^3H]-2-[4-(3-azidophenyl)-2-oxo-1-pyrrolidinyl]butanamide (levetiracetam analog, a tritiated radioligand currently used for the labelling of LBS), and increasing concentrations of the test substance. The non specific binding (NSB) is defined as the residual binding observed in the presence of a concentration of reference substance (e.g. 10^−3 mol/l levetiracetam) that binds essentially all the receptors. Membrane-bound and free radioligands are separated by rapid filtration through glass fiber filters (equivalent to Whatman GF/C or GF/B; VEL, Belgium) pre-soaked in 0.1% polyethyleneimine and 10^−3 mol/l levetiracetam to reduce non specific binding. Samples and filters are rinsed by at least 6 ml of 50 mmol/l Tris-HCl (pH 7.4) buffer. […] The radioactivity trapped onto the filters is counted by liquid scintillation in a β-counter (Tri-Carb 1900 or TopCount 9206, Camberra Packard, Belgium, or any other equivalent counter). Data analysis is perfomed by a computerized non linear curve fitting method using a set of equations describing several binding models assuming populations of independent non-interacting receptors which obey to the law of mass.

[3] = 7-ring compounds, intraperitoneally 60 minutes before induction, inactive = inactive at 1.0E−03
[4] = 7-ring compounds, rat cerebral cortex membranes
[5] = 6-ring compounds, intraperitoneally 60 minutes before induction, inactive = inactive at 1.0E−03
[6] = 6-ring compounds, rat cerebral cortex membranes

CCC(C(N)=O)N1CC(c2ccccc2)CCC1=O (stereo not shown) [Compound 9, 2-(2-oxo-5-phenyl-1-piperidinyl)butanamide]
AUD CC (ED50 for inhibition of Clonic Convulsions in the Audiogenic seizure test) ([1]; ip): 0.00028 mol/kg

CCC(C(N)=O)N1CCC(CI)CCC1=O (single isomer, unassigned) [Compound 19, 2-[5-(iodomethyl)-2-oxo-1-azepanyl]butanamide]
AUD CC (ED50 for inhibition of Clonic Convulsions in the Audiogenic seizure test) [1, 3]: Inactive
Ki [2, 4]: > 3160 nM

CCC(C(N)=O)N1CCC(CI)CCC1=O (single isomer, unassigned) [Compound 18, 2-[5-(iodomethyl)-2-oxo-1-azepanyl]butanamide]
AUD CC (ED50 for inhibition of Clonic Convulsions in the Audiogenic seizure test) [1, 3]: 0.00013 mol/kg
Ki [2, 4]: 31.6 to 316 nM

CCC(C(N)=O)N1CCC(CI)CCC1=O (single isomer, unassigned) [Compound 20, 2-[5-(iodomethyl)-2-oxo-1-azepanyl]butanamide]
AUD CC (ED50 for inhibition of Clonic Convulsions in the Audiogenic seizure test) [1, 3]: 0.00056 mol/kg
Ki [2, 4]: 316 to 3160 nM

CC[C@@H](C(N)=O)N1CC(CI)CCC1=O (stereo partly drawn) [Compound 6, (2S)-2-[5-(iodomethyl)-2-oxo-1-piperidinyl]butanamide]
AUD CC (ED50 for inhibition of Clonic Convulsions in the Audiogenic seizure test) [1, 5]: 0.0002 mol/kg
Ki [2, 6]: 31.6 to 316 nM

CC[C@@H](C(N)=O)N1CCC(CI)CC1=O (stereo partly drawn) [Compound 15, (2S)-2-[4-(iodomethyl)-2-oxo-1-piperidinyl]butanamide]
AUD CC (ED50 for inhibition of Clonic Convulsions in the Audiogenic seizure test) [1, 5]: 0.00025 mol/kg
PKi [2, 6]: +++ (+++ = 6.5 ≦ pKi < 7.5)

CCC(C(N)=O)N1CC(c2ccccc2)CCC1=O (stereo not shown) [Compound 12, 2-(2-oxo-5-phenyl-1-piperidinyl)butanamide]
AUD CC (ED50 for inhibition of Clonic Convulsions in the Audiogenic seizure test) ([1]; ip): Inactive

CC[C@@H](C(N)=O)N1CC(CN=[N+]=[N-])CCC1=O (stereo partly drawn) [Compound 8, (2S)-2-[5-(azidomethyl)-2-oxo-1-piperidinyl]butanamide]
AUD CC (ED50 for inhibition of Clonic Convulsions in the Audiogenic seizure test) ([1]; ip): 0.00028 mol/kg
Ki [2, 6]: 316 to 3160 nM

CC[C@@H](C(N)=O)N1CC(CN=[N+]=[N-])CCC1=O (stereo partly drawn) [Compound 7, (2S)-2-[5-(azidomethyl)-2-oxo-1-piperidinyl]butanamide]
AUD CC (ED50 for inhibition of Clonic Convulsions in the Audiogenic seizure test) ([1]; ip): 0.00012 mol/kg
Ki [2, 6]: 31.6 to 316 nM

CC[C@@H](C(N)=O)N1CC(CI)CCC1=O (stereo partly drawn) [Compound 5, (2S)-2-[5-(iodomethyl)-2-oxo-1-piperidinyl]butanamide]
ED50 ([1]; ip, read-out: AUD CC (ED50 for inhibition of Clonic Convulsions in the Audiogenic seizure test), 6-ring compounds, intraperitoneally 60 minutes before induction, inactive = inactive at 1.0E−03): 160 µmol/kg
Ki [2, 6]: 316 to 3160 nM

CCC(C(N)=O)N1CC(c2ccccc2)CCC1=O (stereo not shown) [Compound 11, 2-(2-oxo-5-phenyl-1-piperidinyl)butanamide]
AUD CC (ED50 for inhibition of Clonic Convulsions in the Audiogenic seizure test) ([1]; ip): 7e-05 mol/kg
Ki [2, 6]: 31.6 to 316 nM

CC[C@H](C(N)=O)N1CCC(CI)CC1=O (stereo partly drawn) [Compound 14, (2R)-2-[4-(iodomethyl)-2-oxo-1-piperidinyl]butanamide]
AUD CC (ED50 for inhibition of Clonic Convulsions in the Audiogenic seizure test) [1, 5]: Inactive

CC[C@H](C(N)=O)N1CCC(CI)CC1=O (stereo partly drawn) [Compound 16, (2R)-2-[4-(iodomethyl)-2-oxo-1-piperidinyl]butanamide]
AUD CC (ED50 for inhibition of Clonic Convulsions in the Audiogenic seizure test) [1, 5]: Inactive

CC[C@@H](C(N)=O)N1CCCC1=O [levetiracetam, (S)-(−)-α-ethyl-2-oxo-1-pyrrolidineacetamide, reference compound]
ED50 ([1]; reference compound, clonic convulsions, audiogenic seizure test, read-out: ED50 CC): 180 µmol/kg
Ki ([2]; reference): 794 nM

CC[C@@H](C(N)=O)N1CCC(CI)CC1=O (stereo partly drawn) [Compound 13, (2S)-2-[4-(iodomethyl)-2-oxo-1-piperidinyl]butanamide]
AUD CC (ED50 for inhibition of Clonic Convulsions in the Audiogenic seizure test) [1, 5]: 0.00011 mol/kg
Ki [2, 6]: 31.6 to 316 nM

CCC(C(N)=O)N1CCC(CI)CCC1=O (single isomer, unassigned) [Compound 17, 2-[5-(iodomethyl)-2-oxo-1-azepanyl]butanamide]
Ki [2, 4]: > 3160 nM

CCC(C(N)=O)N1CC(c2ccccc2)CCC1=O (stereo not shown) [Compound 10, 2-(2-oxo-5-phenyl-1-piperidinyl)butanamide]
AUD CC (ED50 for inhibition of Clonic Convulsions in the Audiogenic seizure test) ([1]; ip): Inactive
